Measurements taken from patent US11648254B2 (Kumquat Biosciences Inc., priority 2021, dated 2023).
Where two headings read alike, the source gives them in different places.

Molecular target: SOS1 (Homo sapiens (Human), UniProt Q07889)
Experiment: Ras-SOS interaction assay (HTRF)
Assay type: biochemical
Text: The ability of any compound of the present disclosure to reduce a Ras protein signaling output by, e.g., interfering or disrupting interaction (or binding) between SOS1 and a Ras protein can be assessed in vitro. For example, the equilibrium interaction of human SOS1 (hSOS1) with human wildtype Kras or K-Ras mutant (e.g., hK-Ras G12C mutant, or hK-RasG12C) can be assessed as a proxy or an indication for a subject compound's ability to inhibit SOS. Detection of such interaction is achieved by measuring homogenous time-resolved fluorescence resonance energy transfer (HTRF) from (i) a fluorescence resonance energy transfer (FRET) donor (e.g., antiGST-Europium) that is bound to GST-tagged K-RasG12C to (ii) a FRET acceptor (e.g., anti-6His-XL665) bound to a His-tagged hSOS1.
The assay buffer can contain 5 mM HEPES pH 7.4, 150 mM NaCl, 10 mM EDTA, 1 mM DTT, 0.05% BSA, 0.0025% (v/v) Igepal and 100 mM KF. A Ras working solution is prepared in assay buffer containing typically 10 nM of the protein construct (e.g., GST-tagged hK-RasG12C) and 2 nM of the FRET donor (e.g., antiGST-Eu(K) from Cisbio, France). A SOS1 working solution is prepared in assay buffer containing typically 10 nM of the protein construct (e.g., His-hSOS1) and 10 nM of the FRET acceptor (e.g., anti-6His-XL665 from Cisbio, France). An inhibitor control solution is prepared in assay buffer containing 10 nM of the FRET acceptor without the SOS1 protein.
A fixed reaction mixture with or without test compound is transferred into a 384-well plate. Ras working solution is added to all wells of the test plate. SOS1 working solution is added to all wells except for those that are subsequently filled the inhibitor control solution. After approximately 60 min incubation, the fluorescence is measured with a M1000Pro plate reader (Tecan) using HTRF detection (excitation 337 nm, emission 1: 620 nm, emission 2: 665 nm). Compounds are tested in duplicates at different concentrations (for example, 10 μM, 2.5 μM, 0.63 μM, 0.16 μM, 0.04 μM, 0.01 μM test compound). The ratiometric data (i.e., emission 2 divided by emission 1) is used to calculate IC50 values against SOS1 using GraphPad Prism (GraphPad software).

[1] = K-RasG13D utilized, read-out: IC50 inhibition of SOS
[2] = K-RasG13D, read-out: IC50 value against SOS1

Chain of SOS1 (Q07889 564-1049): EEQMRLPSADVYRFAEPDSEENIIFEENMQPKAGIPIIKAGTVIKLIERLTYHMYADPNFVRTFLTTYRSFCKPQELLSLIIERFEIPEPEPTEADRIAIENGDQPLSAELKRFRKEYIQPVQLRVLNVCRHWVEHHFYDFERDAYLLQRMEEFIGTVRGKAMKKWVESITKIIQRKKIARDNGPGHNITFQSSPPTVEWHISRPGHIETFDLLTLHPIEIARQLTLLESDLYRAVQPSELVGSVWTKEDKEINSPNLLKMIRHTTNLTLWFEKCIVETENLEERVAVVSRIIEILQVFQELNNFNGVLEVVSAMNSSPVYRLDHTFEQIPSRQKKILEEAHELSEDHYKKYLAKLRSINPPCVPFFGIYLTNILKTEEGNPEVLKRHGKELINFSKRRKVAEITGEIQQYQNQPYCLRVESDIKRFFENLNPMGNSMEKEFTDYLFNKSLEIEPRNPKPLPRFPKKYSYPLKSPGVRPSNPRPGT

IC50 [1] [nM] | IC50 [2] [nM] | SMILES
< 100 | < 50 | COc1nc2nc(C)nc(N[C@H](C)c3cccc(C(F)(F)C4CCN(C(C)C)CC4)c3F)c2cc1C1CCN(C)CC1 [Compound 424, (R)-N-(1-(3-(difluoro(1-isopropylpiperidin-4-yl)methyl)-2-fluorophenyl)ethyl)-7-methoxy-2-methyl-6-(1-methylpiperidin-4-yl)pyrido[2,3-d]pyrimidin-4-amine]
< 100 |  | Cc1nc(N[C@H](C)c2cccc(C(F)(F)F)c2F)c2cc(N3CCN(C(C)C)CC3)nnc2n1 [Compound 107, (R)—N-(1-(2-fluoro-3-(trifluoromethyl)phenyl)ethyl)-3-(4-isopropylpiperazin-1-yl)-7-methylpyrimido[4,5-c]pyridazin-5-amine]
< 100 | < 50 | COc1nc2ncnc(N[C@H](C)c3cccc(C(F)F)c3F)c2cc1C1CCN(C2CCOCC2)CC1 [Compound 416, (R)-N-(1-(3-(difluoromethyl)-2-fluorophenyl)ethyl)-7-methoxy-6-(1-(tetrahydro-2H-pyran-4-yl)piperidin-4-yl)pyrido[2,3-d]pyrimidin-4-amine]
< 100 | < 50 | Cc1nc(N[C@H](C)c2cccc(C(F)F)c2F)c2cc(N3CCN(C)CC3)c(OCCN(C)C)nc2n1 [Compound 371, (R)-N-(1-(3-(difluoromethyl)-2-fluorophenyl)ethyl)-7-(2-(dimethylamino)ethoxy)-2-methyl-6-(4-methylpiperazin-1-yl)pyrido[2,3-d] pyrimidin-4-amine]
< 100 | < 50 | Cc1nc(N[C@H](C)c2cccc(C(F)(F)F)c2C)c2cc(N3CCN(C(C)C)CC3)c(Cl)nc2n1 [Compound 201, (R)-7-chloro-6-(4-isopropylpiperazin-1-yl)-2-methyl-N-(1-(2-methyl-3-(trifluoromethyl)phenyl)ethyl)pyrido[2,3-d]pyrimidin-4-amine]
100 to 1000 |  | Cc1nc(N[C@H](C)c2cccc(C(F)(F)F)c2C)c2cc(C3(C#N)CC3)c(Cl)nc2n1 [Compound 423, (R)-1-(7-chloro-2-methyl-4-((1-(2-methyl-3-(trifluoromethyl)phenyl)ethyl)amino)pyrido[2,3-d]pyrimidin-6-yl)cyclopropane-1-carbonitrile]
100 to 1000 |  | Cc1nc(N[C@H](C)c2cccc(C(F)F)c2F)c2cc(C3(C#N)CC3)c(NC3CCOCC3)nc2n1 [Compound 228, (R)-1-(4-((1-(3-(difluoromethyl)-2-fluorophenyl)ethyl)amino)-2-methyl-7-((tetrahydro-2H-pyran-4-yl)amino)pyrido[2,3-d]pyrimidin-6-yl)cyclopropane-1-carbonitrile]
100 to 1000 |  | COc1nc2nc(C)nc(N[C@H](C)c3cccc(C)c3F)c2cc1[C@H]1C[C@@H](N)C1 [Compound 111, 6-((1s,3S)-3-aminocyclobutyl)-N-((R)-1-(2-fluoro-3-methylphenyl)ethyl)-7-methoxy-2-methylpyrido[2,3-d]pyrimidin-4-amine]
100 to 1000 |  | COc1nc2nc(N3CC(N(C)C)C3)nc(N[C@H](C)c3cccc(C(F)F)c3F)c2cc1C1(C#N)CC1 [Compound 237, (R)-1-(4-((1-(3-(difluoromethyl)-2-fluorophenyl)ethyl)amino)-2-(3-(dimethylamino)azetidin-1-yl)-7-methoxypyrido[2,3-d]pyrimidin-6-yl)cyclopropane-1-carbonitrile]
< 100 |  | COc1nc2nc(C)nc(N[C@H](C)c3cccc(C(F)(F)C4CN(C(C)C)C4)c3F)c2cc1C1(C#N)CC1 [Compound 284, (R)-1-(4-((1-(3-(difluoro(1-isopropylazetidin-3-yl)methyl)-2-fluorophenyl)ethyl)amino)-7-methoxy-2-methylpyrido[2,3-d]pyrimidin-6-yl)cyclopropane-1-carbonitrile]
< 100 | < 50 | COc1nc2nc(C)nc(N[C@H](C)c3cccc(C(F)F)c3F)c2cc1C1CCN(C(=O)NC2CN(C)C2)CC1 [Compound 124, (R)-4-(4-((1-(3-(difluoromethyl)-2-fluorophenyl)ethyl)amino)-7-methoxy-2-methylpyrido[2,3-d]pyrimidin-6-yl)-N-(1-methylazetidin-3-yl)piperidine-1-carboxamide]
100 to 1000 |  | COc1nc2nc(OCC3CN(C(C)C)C3)nc(N[C@H](C)c3cccc(C(F)(F)F)c3F)c2cc1C1CCS(=O)(=O)CC1 [Compound 286, (R)-4-(4-((1-(2-fluoro-3-(trifluoromethyl)phenyl)ethyl)amino)-2-((1-isopropylazetidin-3-yl)methoxy)-7-methoxypyrido[2,3-d]pyrimidin-6-yl)tetrahydro-2H-thiopyran 1,1-dioxide]
100 to 1000 |  | COc1nc2nc(OCC3CCOCC3)nc(N[C@H](C)c3cccc(C(F)F)c3F)c2cc1C1(C#N)CC1 [Compound 275, (R)-1-(4-((1-(3-(difluoromethyl)-2-fluorophenyl)ethyl)amino)-7-methoxy-2-((tetrahydro-2H-pyran-4-yl)methoxy)pyrido[2,3-d]pyrimidin-6-yl)cyclopropane-1-carbonitrile]
< 100 | < 50 | COc1nc2nc(C)nc(N[C@H](C)c3cccc(C(F)F)c3F)c2cc1C1CCN(C(=O)NC2CNC2)CC1 [Compound 122, (R)-N-(azetidin-3-yl)-4-(4-((1-(3-(difluoromethyl)-2-fluorophenyl)ethyl)amino)-7-methoxy-2-methylpyrido[2,3-d]pyrimidin-6-yl)piperidine-1-carboxamide]
100 to 1000 |  | C[C@@H](Nc1ncnc2nc(O[C@H]3CCOC3)c(C3(C#N)CC3)cc12)c1cccc(C(F)F)c1F [Compound 230, 1-(4-(((R)-1-(3-(difluoromethyl)-2-fluorophenyl)ethyl)amino)-7-(((S)-tetrahydrofuran-3-yl)oxy)pyrido[2,3-d]pyrimidin-6-yl)cyclopropane-1-carbonitrile]
100 to 1000 |  | Cc1nc(N[C@H](C)c2cccc(C(F)F)c2F)c2cc(C3(C#N)CC3)c(NC3COC3)nc2n1 [Compound 225, (R)-1-(4-((1-(3-(difluoromethyl)-2-fluorophenyl)ethyl)amino)-2-methyl-7-(oxetan-3-ylamino)pyrido[2,3-d]pyrimidin-6-yl)cyclopropane-1-carbonitrile]
100 to 1000 |  | COc1nc2nc(C)nc(N[C@H](C)c3cc(F)cc(C(F)F)c3F)c2cc1C1CCS(=O)(=O)CC1 [Compound 144, (R)-4-(4-((1-(3-(difluoromethyl)-2,5-difluorophenyl)ethyl)amino)-7-methoxy-2-methylpyrido[2,3-d]pyrimidin-6-yl)tetrahydro-2H-thiopyran 1,1-dioxide]
< 100 |  | COc1nc2nc(C)nc(N[C@H](C)c3cccc(C(F)(F)C(C)(C)OC4CN(C(=O)OC(C)(C)C)C4)c3F)c2cc1N1CCN(C(C)C)CC1 [Compound 241, tert-butyl (R)-3-((1,1-difluoro-1-(2-fluoro-3-(1-((6-(4-isopropylpiperazin-1-yl)-7-methoxy-2-methylpyrido[2,3-d]pyrimidin-4-yl)amino)ethyl)phenyl)-2-methylpropan-2-yl)oxy)azetidine-1-carboxylate]

SMILES | IC50 [1] [nM] | IC50 [2] [nM]
COc1nc2nc(C)nc(N[C@H](C)c3cccc(C(F)(F)F)c3F)c2cc1C1(C#N)CCN(C(C)C)CC1 [Compound 306, (R)-4-(4-((1-(2-fluoro-3-(trifluoromethyl)phenyl)ethyl)amino)-7-methoxy-2-methylpyrido[2,3-d]pyrimidin-6-yl)-1-isopropylpiperidine-4-carbonitrile] | 100 to 1000 | 
